According to patent US9320809B2, “Nanoparticle comprising hydrophobic drug conjugated to cationic polymer and hydrophilic drug conjugated to anionic polymer” (University-Industry Foundation, Yonsei University, priority 2014, dated 2016):

Tested on: Bax, Bcl-2, Bcl-xL mRNA in HuCCT1 and SCK cells
Assay: Expression level of apoptosis-related genes (real-time PCR)
Format: cell-based
Details: same amount of drugs; for change of apoptosis gene expression according to the level of expression of CD44: HuCCT1 versus SCK
Description: The level of expression of an apoptosis gene of each material was compared and analyzed under the same condition as Experimental Example 4.
Specifically, 1×10^6 HuCCT1 and SCK cells were treated with GEM, PTX, GEM+PTX, HA-GEM, PLL-PTX, HA-GEM, and MDNCs for 4 hours based on the same amount of GEM and PTX. Then, the cells were incubated in a new medium for 24 hours, and thereby the cells were obtained. Total amount of RNA with respect to all the obtained cells was obtained with an RNeasy plus mini kit (QIAGEN Gmbh), and then a concentration of total RNA was obtained using a biophotometer. Thereafter, 2 μg of complementary DNA (cDNA) with respect to the total RNA was synthesized through a high capacity RNA-to-cDNA kit (Applied Biosystems; Thermo Fisher Scientific Inc.). Quantitative analysis of the synthesized cDNA was performed using a QuantiMix SYBR Kit (PKT, Korea) in a real-time PCR system (LightCycler 480 System, HNS Bio). The quantitative analysis was performed through a reacting solution (20 μl) including cDNA (1 μl), SYBR Green mixture (10 μl), each of forward primer (1 μl) and reverse primer (1 μl), and DEPC water (7 μl). The used primers were as follows: […]
PCR was performed at 95° C. for 5 minutes, and then genes were amplified for 45 cycles (10 seconds at 95° C., 10 seconds at 60° C., and 10 seconds at 72° C.). A relative amount of each mRNA was analyzed using a Ct method (2-ΔΔCt) based on GAPDH of each cell, from data obtained as described above.

## Nc1ccn([C@@H]2O[C@H](CO)[C@@H](O)C2(F)F)c(=O)n1 [GEM, gemcitabine]
  change of apoptosis gene expression according to the level of expression of CD44: few changes
  effects on apoptosis gene expression compared with MDNCs: lower than those of the MDNCs

## CC(=O)O[C@H]1C(=O)[C@@]2(C)[C@H]([C@H](OC(=O)c3ccccc3)[C@]3(O)C[C@H](OC(=O)[C@H](O)[C@@H](NC(=O)c4ccccc4)c4ccccc4)C(C)=C1C3(C)C)[C@]1(OC(C)=O)CO[C@@H]1C[C@@H]2O [PTX, paclitaxel]
  change of apoptosis gene expression according to the level of expression of CD44: few changes
  effects on apoptosis gene expression compared with MDNCs: lower than those of the MDNCs
